Source: US20060069132A1, “Azolecarboxamide herbicides” (priority 2004, published 2006)

How the values were obtained:
barnyardgrass [1] = assay: Test B pre-/postemergence herbicide test; assay type: in vivo, Echinochloa crus-galli; details: for Barnyardgrass plant response rating: postemergence, scale 0 (no effect) to 100 (complete control)
Method in brief: (§1)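 Visual rating, 0 (no effect) to 100 (complete control), versus untreated controls after 13–15 d in greenhouse. Pre- and postemergence applications (postemergence plants 2–18 cm, 1–4 leaves); flooded paddy arm at 2-leaf stage. Compounds in non-phytotoxic solvent plus surfactant.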

Surinam grass = assay: Test B pre-/postemergence herbicide test; assay type: in vivo, Urochloa decumbens; details: for Surinam Grass plant response rating: postemergence, scale 0 (no effect) to 100 (complete control)
Method in brief: (§2)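 Test chemicals in a non-phytotoxic solvent mixture with surfactant were applied preemergence to seeded species and postemergence to plants 2-18 cm tall (1- to 4-leaf stage); rice and barnyardgrass were also tested in a flooded paddy at the 2-leaf stage. Visual rating versus controls after 13-15 days in greenhouse, scale 0 (no effect) to 100 (complete control).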

cocklebur = assay: Test B pre-/postemergence herbicide test; assay type: in vivo, Xanthium strumarium; details: for Cocklebur plant response rating: postemergence, scale 0 (no effect) to 100 (complete control)
Method in brief: as §1

corn = assay: Test B pre-/postemergence herbicide test; assay type: in vivo, Zea mays; details: for Corn plant response rating: postemergence, scale 0 (no effect) to 100 (complete control)
Method in brief: as §2

large crabgrass = assay: Test B pre-/postemergence herbicide test; assay type: in vivo, Digitaria sanguinalis; details: for Crabgrass, Large plant response rating: postemergence, scale 0 (no effect) to 100 (complete control)
Method in brief: as §2

giant foxtail = assay: Test B pre-/postemergence herbicide test; assay type: in vivo, Setaria faberi; details: for Foxtail, Giant plant response rating: postemergence, scale 0 (no effect) to 100 (complete control)
Method in brief: as §2

lambsquarters = assay: Test B pre-/postemergence herbicide test; assay type: in vivo, Chenopodium album; details: for Lambsquarters plant response rating: postemergence, scale 0 (no effect) to 100 (complete control)
Method in brief: as §2

morningglory = assay: Test B pre-/postemergence herbicide test; assay type: in vivo, Ipomoea coccinea; details: visual rating; for Morningglory plant response rating: postemergence, scale 0 (no effect) to 100 (complete control)
Method in brief: as §1

pigweed = assay: Test B pre-/postemergence herbicide test; assay type: in vivo, Amaranthus retroflexus; details: for Pigweed plant response rating: postemergence, scale 0 (no effect) to 100 (complete control)
Method in brief: as §2

rice [2] = assay: Test B pre-/postemergence herbicide test; assay type: in vivo, Oryza sativa; details: 0 = no effect, 100 = complete control, preemergence
Method in brief: as §2

velvetleaf = assay: Test B pre-/postemergence herbicide test; assay type: in vivo, Abutilon theophrasti; details: for Velvetleaf plant response rating: postemergence, scale 0 (no effect) to 100 (complete control)
Method in brief: as §2

blackgrass = assay: Test B postemergence herbicide test; assay type: in vivo, Alopecurus myosuroides; details: postemergence, visual rating, scale 0 (no effect) to 100 (complete control)
Method in brief: (§3)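 Visual ratings, 0 (no effect) to 100 (complete control), made versus controls after 13–15 d greenhouse. Paddy plants treated at 2-leaf stage; postemergence plants at 1- to 4-leaf stage, 2–18 cm tall.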

wheat = assay: Test B postemergence herbicide test; assay type: in vivo, Triticum aestivum; parameters: key to Wheat plant response rating: 0 = no effect, 100 = complete control; details: postemergence, visual rating, scale 0 (no effect) to 100 (complete control)
Method in brief: (§4)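 After treating 2-leaf paddy plants or 2–18 cm postemergence plants (1 to 4 leaves) with formulated chemical, researchers kept them in a greenhouse for 13–15 days. Effects were judged visually versus controls: 0 indicates none, 100 total control.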

wild oat = assay: Test B postemergence herbicide test; assay type: in vivo, Avena fatua; details: postemergence, visual rating, scale 0 (no effect) to 100 (complete control)
Method in brief: as §4

rice [3] = assay: Test B flooded paddy test; assay type: in vivo, Oryza sativa; details: 1000 g ai/ha, visual rating, scale 0 to 100 (0 no effect, 100 complete control), 13 to 15 days
Method in brief: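 Paddy species grown to the 2-leaf stage under flooding; blackgrass sprayed postemergence at 2–18 cm (1- to 4-leaf stage). Plants kept in a greenhouse for 13 to 15 days, then visually rated against controls on 0 (no effect) to 100 (complete control).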

[4] = system: small flower umbrella sedge; assay: Test B flooded paddy test; assay type: in vivo, Cyperus difformis; details: 1000 g ai/ha, visual rating, scale 0 to 100 (0 no effect, 100 complete control), 13 to 15 days
Method in brief: as §3

ducksalad = assay: Test B flooded paddy test; assay type: in vivo, Heteranthera limosa; details: 1000 g ai/ha, visual rating, scale 0 to 100 (0 no effect, 100 complete control), 13 to 15 days
Method in brief: as §3

barnyardgrass [5] = assay: Test B flooded paddy test; assay type: in vivo, Echinochloa crus-galli; details: 1000 g ai/ha, visual rating, scale 0 to 100 (0 no effect, 100 complete control), 13 to 15 days
Method in brief: as §3

[6] = 125 g ai/ha, 0 = no effect, 100 = complete control, preemergence
[7] = 500 g ai/ha, visual rating, 0 = no effect, 100 = complete control, preemergence

**Q.** `CCc1nn(C(C)(C)C)cc1C(=O)Nc1cc(C(=O)N(C)CC)ccc1F` [Compound 224] was tested. Which “Barnyardgrass plant response rating (0 to 100 scale)” value (barnyardgrass [1]; [6]) did it give?
**A.** The value was 30.

**Q.** What about the “Plant response rating, Barnyardgrass” value (barnyardgrass [1]; [7]) of the same compound?
**A.** Its value is 90.

**Q.** What about the “Barnyardgrass plant response rating” value (barnyardgrass [1]; 125 g ai/ha, visual rating) of the same compound?
**A.** Its value is 10.

**Q.** What about the “Barnyardgrass plant response rating” value (barnyardgrass [1]; 500 g ai/ha, visual rating) of the same compound?
**A.** Its value is 30.

**Q.** And the “Surinam Grass plant response rating (0 to 100 scale)” value (Surinam grass; [6])?
**A.** Its value is 60.

**Q.** And the “Plant response rating, Surinam Grass” value (Surinam grass; [7])?
**A.** The value was 100.

**Q.** And the “Surinam Grass plant response rating” value (Surinam grass; 125 g ai/ha, visual rating)?
**A.** Its value is 10.

**Q.** And the “Surinam Grass plant response rating” value (Surinam grass; 500 g ai/ha, visual rating)?
**A.** Its value is 20.

**Q.** And the “Cocklebur plant response rating (0 to 100 scale)” value (cocklebur; [6])?
**A.** Its value is 20.

**Q.** What about the “Plant response rating, Cocklebur” value (cocklebur; [7]) of the same compound?
**A.** The value was 50.

**Q.** What about the “Cocklebur plant response rating” value (cocklebur; 125 g ai/ha, visual rating) of the same compound?
**A.** The value was 10.

**Q.** What about the “Cocklebur plant response rating” value (cocklebur; 500 g ai/ha, visual rating) of the same compound?
**A.** Its value is 40.

**Q.** And the “Corn plant response rating (0 to 100 scale)” value (corn; [6])?
**A.** The value was 20.

**Q.** And the “Plant response rating, Corn” value (corn; [7])?
**A.** The value was 70.

**Q.** What about the “Corn plant response rating” value (corn; 125 g ai/ha, visual rating) of the same compound?
**A.** Its value is 10.

**Q.** And the “Corn plant response rating” value (corn; 500 g ai/ha, visual rating)?
**A.** Its value is 20.

**Q.** And the “Crabgrass, Large plant response rating (0 to 100 scale)” value (large crabgrass; [6])?
**A.** Its value is 30.

**Q.** What about the “Plant response rating, Crabgrass, Large” value (large crabgrass; [7]) of the same compound?
**A.** Its value is 100.

**Q.** What about the “Crabgrass, Large plant response rating” value (large crabgrass; 125 g ai/ha, visual rating) of the same compound?
**A.** Its value is 10.

**Q.** What about the “Crabgrass, Large plant response rating” value (large crabgrass; 500 g ai/ha, visual rating) of the same compound?
**A.** Its value is 20.

**Q.** And the “Foxtail, Giant plant response rating (0 to 100 scale)” value (giant foxtail; [6])?
**A.** The value was 10.

**Q.** And the “Plant response rating, Foxtail, Giant” value (giant foxtail; [7])?
**A.** Its value is 70.

**Q.** What about the “Foxtail, Giant plant response rating” value (giant foxtail; 125 g ai/ha, visual rating) of the same compound?
**A.** Its value is 20.

**Q.** What about the “Foxtail, Giant plant response rating” value (giant foxtail; 500 g ai/ha, visual rating) of the same compound?
**A.** The value was 30.

**Q.** What about the “Lambsquarters plant response rating (0 to 100 scale)” value (lambsquarters; [6]) of the same compound?
**A.** The value was 100.

**Q.** And the “Plant response rating, Lambsquarters” value (lambsquarters; [7])?
**A.** The value was 100.

**Q.** What about the “Lambsquarters plant response rating” value (lambsquarters; 125 g ai/ha, visual rating) of the same compound?
**A.** The value was 60.

**Q.** What about the “Lambsquarters plant response rating” value (lambsquarters; 500 g ai/ha, visual rating) of the same compound?
**A.** Its value is 70.

**Q.** And the “Plant response rating, Morningglory” value (morningglory; 500 g ai/ha, 0 = no effect, 100 = complete control, preemergence)?
**A.** Its value is 30.

**Q.** What about the “Morningglory plant response rating” value (morningglory; 125 g ai/ha) of the same compound?
**A.** Its value is 30.

**Q.** What about the “Morningglory plant response rating” value (morningglory; 500 g ai/ha) of the same compound?
**A.** The value was 70.

**Q.** What about the “Pigweed plant response rating (0 to 100 scale)” value (pigweed; [6]) of the same compound?
**A.** The value was 80.

**Q.** And the “Plant response rating, Pigweed” value (pigweed; [7])?
**A.** The value was 100.

**Q.** And the “Pigweed plant response rating” value (pigweed; 125 g ai/ha, visual rating)?
**A.** The value was 40.

**Q.** What about the “Pigweed plant response rating” value (pigweed; 500 g ai/ha, visual rating) of the same compound?
**A.** Its value is 60.

**Q.** What about the “Rice plant response rating (0 to 100 scale)” value (rice [2]; 125 g ai/ha) of the same compound?
**A.** The value was 30.

**Q.** What about the “Plant response rating, Rice” value (rice [2]; 500 g ai/ha, visual rating) of the same compound?
**A.** Its value is 80.

**Q.** And the “Velvetleaf plant response rating (0 to 100 scale)” value (velvetleaf; [6])?
**A.** Its value is 70.

**Q.** And the “Plant response rating, Velvetleaf” value (velvetleaf; [7])?
**A.** Its value is 100.

**Q.** And the “Velvetleaf plant response rating” value (velvetleaf; 125 g ai/ha, visual rating)?
**A.** The value was 20.

**Q.** What about the “Velvetleaf plant response rating” value (velvetleaf; 500 g ai/ha, visual rating) of the same compound?
**A.** Its value is 60.

**Q.** What about the “Blackgrass plant response rating” value (blackgrass; 125 g ai/ha) of the same compound?
**A.** Its value is 0.

**Q.** And the “Blackgrass plant response rating” value (blackgrass; 500 g ai/ha)?
**A.** Its value is 10.

**Q.** What about the “Wheat plant response rating” value (wheat; 125 g ai/ha) of the same compound?
**A.** Its value is 0.

**Q.** And the “Wheat plant response rating” value (wheat; 500 g ai/ha)?
**A.** Its value is 30.

**Q.** What about the “Oat, Wild plant response rating” value (wild oat; 125 g ai/ha) of the same compound?
**A.** The value was 0.

**Q.** What about the “Oat, Wild plant response rating” value (wild oat; 500 g ai/ha) of the same compound?
**A.** Its value is 30.

**Q.** What about the “Rice plant response rating” value (rice [3]) of the same compound?
**A.** The value was 90.

**Q.** And the “Sedge, Umbrella plant response rating” value [4]?
**A.** The value was 80.

**Q.** And the “Ducksalad plant response rating” value (ducksalad)?
**A.** Its value is 80.

**Q.** What about the “Barnyardgrass plant response rating” value (barnyardgrass [5]) of the same compound?
**A.** The value was 90.
